Reference: patent US8772323B2, “Benzoxazole- and tetrahydrobenzoxazole-substituted pyridazinones as GPR119 agonists” (Boehringer Ingelheim International GmbH, priority 2010, dated 2014)
Counter-ions that a name gives are not always drawn.

Molecular target: human GPR119 (Homo sapiens (Human), UniProt Q8TDV5)
Experiment: AlphaScreen cAMP assay in Min-6/hGPR119 cells (GPR119 activation, intracellular cAMP)
Format: cell-based
Settings: MIN6 cells stably transfected with human GPR119; 45 minutes' incubation at RT; AlphaScreen cAMP Assay Kit
Procedure, shortened: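 cAMP quantified by AlphaScreen after 45 min room-temperature compound exposure in HEPES/bicarbonate buffer, pH 7.4, containing 0.5 mM IBMX, 0.1% BSA and 1% DMSO final. Cells were Min-6 stably transfected with human GPR119, seeded 24 h beforehand.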

Chain of human GPR119 (Q8TDV5 whole entry): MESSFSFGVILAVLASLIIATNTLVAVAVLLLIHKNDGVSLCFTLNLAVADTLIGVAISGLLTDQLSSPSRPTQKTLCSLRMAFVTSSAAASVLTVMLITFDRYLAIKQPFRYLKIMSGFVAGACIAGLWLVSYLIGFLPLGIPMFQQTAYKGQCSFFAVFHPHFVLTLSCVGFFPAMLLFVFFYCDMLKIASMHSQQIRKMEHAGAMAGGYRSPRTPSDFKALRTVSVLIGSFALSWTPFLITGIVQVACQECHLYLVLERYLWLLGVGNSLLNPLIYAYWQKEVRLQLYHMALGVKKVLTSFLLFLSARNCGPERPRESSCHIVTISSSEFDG

Compound | EC50 [nM]
O=C1NN=C([C@@H]2CCc3nc(-c4ccccc4)oc3C2)[C@H]2C[C@@H]12 [Example 132, (1R,6S)-5-((R)-2-phenyl-4,5,6,7-tetrahydro-benzoxazol-6-yl)-3,4-diaza-bicyclo[4.1.0]hept-4-en-2-one] | 4160
O=C1NN=C([C@H]2CCc3nc(-c4ccccc4)oc3C2)[C@@H]2C[C@H]12 [Example 133, (1S,6R)-5-((S)-2-phenyl-4,5,6,7-tetrahydro-benzoxazol-6-yl)-3,4-diaza-bicyclo[4.1.0]hept-4-en-2-one] | 300
O=C1NN=C([C@@H]2CCc3nc(-c4ccccc4)oc3C2)[C@@H]2C[C@H]12 [Example 134, (1S,6R)-5-((R)-2-phenyl-4,5,6,7-tetrahydro-benzoxazol-6-yl)-3,4-diaza-bicyclo[4.1.0]hept-4-en-2-one] | 1630
O=C1NN=C(N2CCc3nc(-c4ccccc4)oc3C2)C2CC12 (stereo not drawn) [Example 135, 5-(2-phenyl-4,5,6,7-tetrahydro-4H-oxazolo[5,4-c]pyridin-5-yl)-3,4-diaza-bicyclo[4.1.0]hept-4-en-2-one] | 391
O=C1NN=C(c2ccc3nc(Cc4ccccc4)oc3c2)C2CC12 (stereo not drawn) [Example 136, 5-(2-benzyl-benzoxazol-6-yl)-3,4-diaza-bicyclo[4.1.0]hept-4-en-2-one] | 2020
O=C1NN=C(c2ccc3nc(-c4ccc(OCCN5CCOCC5)cc4)oc3c2)C2CC12 (stereo not drawn) [Example 137, 5-{2-[4-(2-morpholin-4-yl-ethoxy)-phenyl]-benzoxazol-6-yl}-3,4-diaza-bicyclo[4.1.0]hept-4-en-2-one] | 497
O=C1CC(C2CC2)C(N2CCc3nc(-c4ccccc4)oc3C2)=NN1 (stereo not drawn) [Example 138, 5-cyclopropyl-6-(2-phenyl-6,7-dihydro-4H-oxazolo[5,4-c]pyridin-5-yl)-4,5-dihydro-2H-pyridazin-3-one] | 1310
CC1CC(c2ccc3nc(-c4cccs4)oc3c2)=NNC1=O (stereo not drawn) [Example 139, 4-methyl-6-(2-thiophen-2-yl-benzoxazol-6-yl)-4,5-dihydro-2H-pyridazin-3-one] | 1560
CCCCC1CC(c2ccc3nc(-c4cccs4)oc3c2)=NNC1=O (stereo not drawn) [Example 140, 4-butyl-6-(2-thiophen-2-yl-benzoxazol-6-yl)-4,5-dihydro-2H-pyridazin-3-one] | > 10000
CCC1CC(c2ccc3nc(-c4cccs4)oc3c2)=NNC1=O (stereo not drawn) [Example 141, 4-ethyl-6-(2-thiophen-2-yl-benzoxazol-6-yl)-4,5-dihydro-2H-pyridazin-3-one] | 7330
CC1NC(=O)NN=C1c1ccc2nc(-c3ccccc3)oc2c1 (stereo not drawn) [Example 142, 5-methyl-6-(2-phenyl-benzoxazol-6-yl)-4,5-dihydro-2H-[1,2,4]triazin-3-one] | 539
O=C1NCC(c2ccc3nc(-c4ccccc4)oc3c2)=NN1 [Example 143, 6-(2-phenyl-benzoxazol-6-yl)-4,5-dihydro-2H-[1,2,4]triazin-3-one] | 397
CCC1NC(=O)NN=C1c1ccc2nc(-c3ccccc3)oc2c1 (stereo not drawn) [Example 144, 5-ethyl-6-(2-phenyl-benzoxazol-6-yl)-4,5-dihydro-2H-[1,2,4]triazin-3-one] | 987
CC[C@H]1C(c2ccc3nc(-c4ccccc4)oc3c2)=NNC(=O)[C@H]1C [Example 146, (4S,5R)-5-ethyl-4-methyl-6-(2-phenyl-1,3-benzoxazol-6-yl)-2,3,4,5-tetrahydropyridazin-3-one] | 8850
CC[C@H]1C(c2ccc3nc(-c4ccccc4)oc3c2)=NNC(=O)[C@@H]1C [Example 147, (4R,5R)-5-ethyl-4-methyl-6-(2-phenyl-1,3-benzoxazol-6-yl)-2,3,4,5-tetrahydropyridazin-3-one] | 79
CCC1CC(=O)NN=C1c1ccc2nc(-c3cccc(OCCN4CCCCC4)c3)oc2c1 (stereo not drawn) [Example 148, 5-ethyl-6-{2-[3-(2-piperidin-1-yl-ethoxy)-phenyl]-benzoxazol-6-yl}-4,5-dihydro-2H-pyridazin-3-one] | 1560
CCC1CC(=O)NN=C1c1ccc2nc(-c3cccc(OCCN4CCCCCC4)c3)oc2c1 (stereo not drawn) [Example 149, 6-{2-[3-(2-azepan-1-yl-ethoxy)-phenyl]-benzoxazol-6-yl}-5-ethyl-4,5-dihydro-2H-pyridazin-3-one] | 567
CCC1CC(=O)NN=C1c1ccc2nc(-c3cccc(OCc4ccncc4)c3)oc2c1 (stereo not drawn) [Example 150, 5-ethyl-6-{2-[3-(pyridin-4-ylmethoxy)-phenyl]-benzoxazol-6-yl}-4,5-dihydro-2H-pyridazin-3-one] | 1260
CCC1CC(=O)NN=C1c1ccc2nc(-c3cccc(OCCN4C(C)(C)CCCC4(C)C)c3)oc2c1 (stereo not drawn) [Example 151, 5-ethyl-6-(2-{3-[2-(2,2,6,6-tetramethyl-piperidin-1-yl)-ethoxy]-phenyl}-benzoxazol-6-yl)-4,5-dihydro-2H-pyridazin-3-one] | 116
CCC1CC(=O)NN=C1c1ccc2nc(-c3cccc(OCCCN4CCCCC4)c3)oc2c1 (stereo not drawn) [Example 152, 5-ethyl-6-{2-[3-(3-piperidin-1-yl-propoxy)-phenyl]-benzoxazol-6-yl}-4,5-dihydro-2H-pyridazin-3-one] | 1080
CCC1CC(=O)NN=C1c1ccc2nc(-c3cccc(OCCN4CCC(C#N)CC4)c3)oc2c1 (stereo not drawn) [Example 153, 1-(2-{3-[6-(4-ethyl-6-oxo-1,4,5,6-tetrahydro-pyridazin-3-yl)-benzoxazol-2-yl]-phenoxy}-ethyl)-piperidine-4-carbonitrile] | 735

More lines, now with the values ahead:

EC50 [nM] | Compound
424 | CCC1CC(=O)NN=C1c1ccc2nc(-c3cccc(OCCN(C(C)C)C(C)C)c3)oc2c1 (stereo not drawn) [Example 154, 6-{2-[3-(2-diisopropylamino-ethoxy)-phenyl]-benzoxazol-6-yl}-5-ethyl-4,5-dihydro-2H-pyridazin-3-one]
7750 | CCC1CC(=O)NN=C1c1ccc2nc(-c3cccc(OCCN4CCN(C(=O)OC(C)(C)C)CC4)c3)oc2c1 (stereo not drawn) [Example 155, tert-butyl 4-(2-{3-[6-(4-ethyl-6-oxo-1,4,5,6-tetrahydro-pyridazin-3-yl)-benzoxazol-2-yl]-phenoxy}-ethyl)-piperazine-1-carboxylate]
248 | CCC1CC(=O)NN=C1c1ccc2nc(-c3cccc(OCCN(CC(C)C)CC(C)C)c3)oc2c1 (stereo not drawn) [Example 156, 6-{2-[3-(2-diisobutylamino-ethoxy)-phenyl]-benzoxazol-6-yl}-5-ethyl-4,5-dihydro-2H-pyridazin-3-one]
2030 | CCC1CC(=O)NN=C1c1ccc2nc(-c3cccc(OCCN4CCN(C(C)CC)CC4)c3)oc2c1 (stereo not drawn) [Example 157, 6-(2-{3-[2-(4-sec-butyl-piperazin-1-yl)-ethoxy]-phenyl}-benzoxazol-6-yl)-5-ethyl-4,5-dihydro-2H-pyridazin-3-one]
1960 | CCC1CC(=O)NN=C1c1ccc2nc(-c3ccc(OCc4ccc(S(C)(=O)=O)cc4)cc3)oc2c1 (stereo not drawn) [Example 158, 5-ethyl-6-{2-[4-(4-methanesulphonyl-benzoxy)-phenyl]-benzoxazol-6-yl}-4,5-dihydro-2H-pyridazin-3-one]
623 | CCC1CC(=O)NN=C1c1ccc2nc(-c3ccc(OCCN4CCCC4)cc3)oc2c1 (stereo not drawn) [Example 159, 5-ethyl-6-{2-[4-(2-pyrrolidin-1-yl-ethoxy)-phenyl]-benzoxazol-6-yl}-4.5-dihydro-2H-pyridazin-3-one]
124 | CCC1CC(=O)NN=C1c1ccc2nc(-c3ccc(OCCN(CC(C)C)CC(C)C)cc3)oc2c1 (stereo not drawn) [Example 160, 6-{2-[4-(2-diisobulylamino-ethoxy)-phenyl]-benzoxazol-6-yl}-5-ethyl-4,5-dihydro-2H-pyridazin-3-one]
293 | CCC1CC(=O)NN=C1c1ccc2nc(-c3ccc(OCCCN4CCCCC4)cc3)oc2c1 (stereo not drawn) [Example 161, 5-ethyl-6-{2-[4-(3-piperidin-1-yl-propoxy)-phenyl]-benzoxazol-6-yl}-4,5-dihydro-2H-pyridazin-3-one x HCl]
9120 | CCC1CC(=O)NN=C1c1ccc2nc(-c3ccc(OCCN4CCN(C(C)=O)CC4)cc3)oc2c1 (stereo not drawn) [Example 162, 6-(2-{4-[2-(4-acetyl-piperazin-1-yl)-ethoxy]-phenyl}-benzoxazol-6-yl)-5-ethyl-4,5-dihydro-2H-pyridazin-3-one]
97 | CCC1CC(=O)NN=C1c1ccc2nc(-c3ccc(OCCN4CCC(C#N)CC4)cc3)oc2c1 (stereo not drawn) [Example 163, 1-(2-{4-[6-(4-ethyl-6-oxo-1,4,5,6-tetrahydro-pyridazin-3-yl)-benzoxazol-2-yl]-phenoxy}-ethyl)-piperidin-4-carbonitrile]
552 | CCC1CC(=O)NN=C1c1ccc2nc(-c3ccc(OCCN4C[C@H]5CC[C@@H]4C5)cc3)oc2c1 (stereo partly drawn) [Example 164, 6-(2-{4-[2-(2-aza-bicyclo[2.2.1]-hept-2-yl)-ethoxy]-phenyl}-benzoxazol-6-yl)-5-ethyl-4,5-dihydro-2H-pyridazin-3-one]
118 | CCC1CC(=O)NN=C1c1ccc2nc(-c3ccc(OCCN4CCN(C(=O)OC(C)(C)C)CC4)cc3)oc2c1 (stereo not drawn) [Example 165, terl-butyl 4-(2-{4-[6-(4-ethyl-6-oxo-1,4,5,6-tetrahydro-pyridazin-3-yl)-benzoxazol-2-yl]-phenoxy}-ethyl)-piperazine-1-carboxylate]
621 | CCC1CC(=O)NN=C1c1ccc2nc(-c3ccc(OCCN4CCN(C(C)CC)CC4)cc3)oc2c1 (stereo not drawn) [Example 166, 6-(2-{4-[2-(4-sec-butyl-piperazin-1-yl)-ethoxy]-phenyl}-benzoxazol-6-yl)-5-ethyl-4,5-dihydro-2H-pyridazin-3-one]
1030 | CCC1CC(=O)NN=C1c1ccc2nc(-c3ccc(OCCN4CCCC4=O)cc3)oc2c1 (stereo not drawn) [Example 167, 5-ethyl-6-(2-{4-[2-(2-oxo-pyrrolidin-1-yl)-ethoxy]-phenyl}-benzoxazol-6-yl)-4,5-dihydro-2H-pyridazin-3-one]
3010 | CCC1CC(=O)NN=C1c1ccc2nc(-c3ccc(OCCN4CCN(C(C)C)CC4)cc3)oc2c1 (stereo not drawn) [Example 168, 5-ethyl-6-(2-{4-[2-(4-isopropyl-piperazin-1-yl)-ethoxy]-phenyl}-benzoxazol-6-yl)-4,5-dihydro-2H-pyridazin-3-one]
